# Assay results published in US20220304978A1, “INHIBITING MESANGIAL CELL ACTIVATION” (Chinook Therapeutics, Inc., priority 2019, published 2022).
# Positions of bridges follow the written chain, without caps; N, C: chain ends. No end group written: not given here.
# System: IL-6 production in primary human mesangial cells
# Assay: ET-1 induced IL-6 production in HRMCs (ELISA)
# Format: cell-based
substance,measurement,setting,value
"ET-1: endothelin 1 (ET-1), used to stimulate primary human mesangial cells (CSCSSLMDKECVYFCHLDIIW; disulfide 1-15, 3-11; ends not checked; UniProt P05305 53-73, looked up)",increase in IL-6 production by primary human mesangial cells exposed to ET-1,48 hours,~6 fold
same,increase in IL-6 production by primary human mesangial cells exposed to ET-1,72 hours,~2.2 fold
